According to ChEMBL document CHEMBL1201862, “PubChem BioAssay data set” (2004):
Active and inactive are the calls of the source.

Columns and labels:
[1] = system: Streptococcus sp. 'group A'; assay: growth inhibition of control SK(-) GAS strain, dose response, counter-screen for streptokinase expression inhibitor project, luminescence, kanamycin, BacTiterGlo, confirmation (AID 1900); assay type: functional, organism-based
Streptococcus = assay: Group A Streptococcus viability loss, dose response, counter-screen for streptokinase expression inhibitor project, luminescence, BacTiterGlo (AID 1915); assay type: functional, organism-based;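 further: potency for reduction of bacterial viability or growth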
Streptokinase A = target: T1, Streptokinase A (Streptococcus pyogenes serotype M1, UniProt P10520); assay: S. pyogenes streptokinase expression inhibitors, potency, dose response, plasminogen activation absorbance, OD405 (AID 1914); assay type: functional, Streptococcus pyogenes M1 GAS;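 further: secreted streptokinase activity via plasminogen activation per viability signal from cell pellet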
T1 sequence (P10520 whole entry): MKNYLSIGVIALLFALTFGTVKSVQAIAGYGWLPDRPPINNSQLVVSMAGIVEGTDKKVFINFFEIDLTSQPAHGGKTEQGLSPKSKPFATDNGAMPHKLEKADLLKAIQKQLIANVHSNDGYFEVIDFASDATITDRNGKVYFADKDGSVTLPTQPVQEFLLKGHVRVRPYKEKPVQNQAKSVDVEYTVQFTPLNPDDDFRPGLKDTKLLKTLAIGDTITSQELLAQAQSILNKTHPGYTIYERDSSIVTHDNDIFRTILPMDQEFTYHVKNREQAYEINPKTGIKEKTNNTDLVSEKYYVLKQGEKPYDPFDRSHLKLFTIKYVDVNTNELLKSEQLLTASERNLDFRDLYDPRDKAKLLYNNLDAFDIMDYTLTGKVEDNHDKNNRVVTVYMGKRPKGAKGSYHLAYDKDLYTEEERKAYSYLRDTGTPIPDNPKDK

[2] = target: T2, Heat shock factor protein 1 (Mus musculus, UniProt P38532); assay: HSF1 potentiators in luciferase reporter cells, confirmation, cell-based, NIH3T3, luminescence, dose retest (AID 435004); assay type: functional;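 further: stress induced by proteasome inhibitor MG132 added 30 min after compound; luciferase reporter driven by HSF1 response element in NIH3T3 cells; actives raise luminescence as potentiators of the MG132 stress response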
T2 sequence (P38532 whole entry): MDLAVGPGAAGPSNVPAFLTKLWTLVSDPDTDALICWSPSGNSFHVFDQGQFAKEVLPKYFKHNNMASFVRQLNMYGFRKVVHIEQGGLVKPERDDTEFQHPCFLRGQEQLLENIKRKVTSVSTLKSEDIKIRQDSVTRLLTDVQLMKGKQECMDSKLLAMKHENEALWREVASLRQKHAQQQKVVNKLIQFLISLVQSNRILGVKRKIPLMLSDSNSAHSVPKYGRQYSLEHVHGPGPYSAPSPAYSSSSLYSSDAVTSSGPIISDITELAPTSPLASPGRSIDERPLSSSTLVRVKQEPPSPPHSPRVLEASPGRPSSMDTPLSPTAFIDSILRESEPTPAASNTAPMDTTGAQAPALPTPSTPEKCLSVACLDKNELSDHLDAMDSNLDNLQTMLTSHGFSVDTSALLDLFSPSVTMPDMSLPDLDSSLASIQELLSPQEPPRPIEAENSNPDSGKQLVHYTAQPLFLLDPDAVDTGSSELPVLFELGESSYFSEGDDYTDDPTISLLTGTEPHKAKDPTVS

[3] = target: T2, Heat shock factor protein 1; assay: inhibition of MG132-induced HSE-luciferase signal, confirmation, cell-based, NIH3T3, luminescence, dose retest (AID 2382); assay type: functional;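 further: NIH3T3 fibroblasts with HSF1-driven luciferase reporter stressed by proteasome inhibitor MG132; luminescence from HSF1-driven luciferase expression after 8 hours of MG132 stress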
Cytochrome P450 2C19 = Cytochrome P450 2C19 (Homo sapiens, UniProt P33261); assay: Cytochrome panel assay with activity outcomes. Panel member name: p450-cyp2c19 Compounds with AC50 equal or less than 10 uM are considered active; assay type: functional; settings: read-out: AC50
H4 = assay: Luminescence Cell-Based Dose Response HTS to Identify Activators of 5'UTR Stem-Loop Driven Prion Protein mRNA Translation in H4 Neuroglioblastoma Cells. [Related pubchem assays: 1829 (Project Summary), 1814 (Primary HTS)]; assay type: functional; settings: Homo sapiens
[4] = Luminescence Cell-Based Dose Response HTS to Identify Activators of Luciferase Translation or Activity in H4 […] Cells. [Related pubchem assays: 1829 (Project Summary), 1814 (Primary HTS)]; assay type: functional
[5] = Luminescence Cell-Based Dose Confirmation HTS to Identify Activators of 5'UTR Stem-Loop Driven Alpha-Synuclein mRNA Translation in H4 Neuroglioblastoma Cells. [Related pubchem assays: 1829 (Project Summary), 1814 (Primary HTS)]; assay type: functional
[6] = target: T3, Rac GTPase-activating protein 1 (Homo sapiens, UniProt Q9H0H5); assay: MgcRacGAP GTPase-activating activity inhibitors, confirmation, biochemical, ADP Hunter fluorescence, primary and confirmatory (AID 624330); assay type: functional
T3 sequence (Q9H0H5 whole entry): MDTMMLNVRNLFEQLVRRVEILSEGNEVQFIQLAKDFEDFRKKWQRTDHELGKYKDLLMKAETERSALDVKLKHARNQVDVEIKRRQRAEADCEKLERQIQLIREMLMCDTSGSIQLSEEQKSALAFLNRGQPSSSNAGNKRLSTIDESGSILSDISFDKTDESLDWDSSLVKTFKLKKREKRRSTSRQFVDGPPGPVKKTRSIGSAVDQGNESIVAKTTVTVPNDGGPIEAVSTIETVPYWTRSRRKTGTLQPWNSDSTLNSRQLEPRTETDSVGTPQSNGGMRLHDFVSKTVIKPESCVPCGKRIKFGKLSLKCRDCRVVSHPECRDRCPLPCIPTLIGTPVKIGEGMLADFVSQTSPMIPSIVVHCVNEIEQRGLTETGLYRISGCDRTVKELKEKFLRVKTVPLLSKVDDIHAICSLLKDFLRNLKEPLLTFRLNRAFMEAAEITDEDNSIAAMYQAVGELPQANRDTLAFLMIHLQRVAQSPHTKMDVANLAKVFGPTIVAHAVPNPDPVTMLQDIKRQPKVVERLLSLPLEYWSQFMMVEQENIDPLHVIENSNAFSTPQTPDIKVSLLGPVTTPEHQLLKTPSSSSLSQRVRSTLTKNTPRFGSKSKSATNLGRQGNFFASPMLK

Cytochrome P450 2C19, sequence (P33261 whole entry): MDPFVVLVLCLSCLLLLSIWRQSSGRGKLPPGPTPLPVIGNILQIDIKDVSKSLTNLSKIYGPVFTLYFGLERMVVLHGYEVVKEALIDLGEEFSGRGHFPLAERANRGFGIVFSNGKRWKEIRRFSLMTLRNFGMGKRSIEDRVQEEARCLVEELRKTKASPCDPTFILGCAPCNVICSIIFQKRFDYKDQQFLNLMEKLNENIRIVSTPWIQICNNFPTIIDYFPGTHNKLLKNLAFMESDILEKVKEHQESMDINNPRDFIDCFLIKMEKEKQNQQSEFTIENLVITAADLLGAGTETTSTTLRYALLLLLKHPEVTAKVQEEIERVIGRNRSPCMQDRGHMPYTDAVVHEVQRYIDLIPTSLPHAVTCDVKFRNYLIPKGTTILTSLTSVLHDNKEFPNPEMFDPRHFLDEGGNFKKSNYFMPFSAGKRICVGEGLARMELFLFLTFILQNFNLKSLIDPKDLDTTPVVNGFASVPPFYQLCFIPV

CN(CC1CCCO1)S(=O)(=O)c1ccc(C(=O)Nc2ccccc2F)cc1 (stereo unspecified)
EC50 [1]: > 150 µM (not active)
EC50 (Streptococcus): > 150 µM (not active)
EC50 (Streptokinase A): > 150 µM (not active)

O=C(CSc1nnc(-c2c[nH]c3ccccc23)o1)c1ccccc1
EC50 [2]: > 260 µM (inactive)

Cc1sc2nc(C3CC3)nc(SCC(=O)N3CCc4ccccc4C3)c2c1C
EC50 [2]: 28.6 µM (active)

N=c1c(S(=O)(=O)c2ccc(Br)cc2)cc2c(=O)n3ccccc3nc2n1C1CCCC1
EC50 [2]: > 260 µM (inactive)

CC(C)C[C@H](NC(=O)c1[nH]cnc1C(=O)N[C@@H](C)C(=O)OC(C)(C)C)C(=O)OCc1ccccc1
EC50 [1]: 8.12 µM (active)
EC50 (Streptococcus): 40.9 µM (active)
EC50 (Streptokinase A): > 150 µM (not active)

COc1ccc(C2/C=C\CN(C(=O)c3ccccc3)CC(=O)N2Cc2ccc(F)cc2)cc1 (stereo unspecified)
EC50 [1]: > 150 µM (not active)
EC50 (Streptococcus): > 150 µM (not active)
EC50 (Streptokinase A): > 150 µM (not active)

COC(=O)[C@@H](NC(=O)NC1CCCc2ccccc21)C(C)C (stereo partly specified)
EC50 [2]: > 260 µM (inactive)

Cc1ccc(NC(=O)NC2=N/C(=C(/C#N)C(=O)N3CCCC3)c3ccccc32)cc1
EC50 [3]: > 195 µM (not active)

Cc1c(Cl)cccc1NC(=O)c1cccc(OC(F)F)c1
EC50 [3]: > 195 µM (not active)

O=[N+]([O-])c1ccc(NCCOc2ccccc2Cl)nc1
EC50 [3]: > 195 µM (not active)

O=c1c2cccnc2n(-c2ccccc2)n1Cc1c(Cl)cccc1Cl
EC50 [3]: > 195 µM (not active)

COc1ccc(-c2oc3ccccc3c2C(=O)Oc2ccccc2)cc1
EC50 [3]: 152 µM (active)

c1ccc(-c2nc(C3CCCCC3)c3ccccc3n2)cc1
EC50 [1]: 3.71 µM (active)
EC50 (Streptococcus): 25.2 µM (active)
EC50 (Streptokinase A): 21.6 µM (active)

CCOC(=O)c1c(C)nc2c(C)cccn12
EC50 [3]: > 195 µM (not active)

COc1cccc(NN=C2C(=O)NC(=S)NC2=O)c1
EC50 [2]: 9.18 µM (active)

CCCCCCCN1N=C(C)C(C(=O)c2ccccc2)C1=O (stereo unspecified)
EC50 [1]: 2.89 µM (active)
EC50 (Streptococcus): 30.9 µM (active)
EC50 (Streptokinase A): > 150 µM (not active)

CC(=O)Oc1ccc(Cn2cnc3cc4ccccc4cc32)cc1
EC50 [2]: 44.4 µM (active)

COc1ccc(S(=O)(=O)Nc2ccncc2)c(C)c1C
EC50 [2]: > 260 µM (inactive)

O=C(Nc1ccc(F)c(Cl)c1)Nc1csc2ccccc12
EC50 [1]: 6.52 µM (active)
EC50 (Streptococcus): 5.69 µM (active)
EC50 (Streptokinase A): > 50 µM (not active)

N#Cc1cc(-c2ccccc2)cnc1Sc1ccccc1
EC50 [2]: > 260 µM (inactive)

O=C(c1ccccc1)c1ccc(OCC(O)CN2CCCC2)cc1 (stereo unspecified)
EC50 [3]: > 195 µM (not active)

Cc1cc(C)cc(OCC(O)CN2CCN(C(=O)c3ccco3)CC2)c1 (stereo unspecified)
EC50 [3]: > 195 µM (not active)

COc1ccc(NC(=O)CSc2nnc3ccc(-c4ccncc4)nn23)cc1OC
EC50 [3]: > 195 µM (not active)

COc1ccccc1N1CC(C(=O)Nc2nnc(SCC(=O)N3CCCC3)s2)CC1=O (stereo unspecified)
EC50 [1]: > 150 µM (not active)
EC50 (Streptococcus): > 150 µM (not active)
EC50 (Streptokinase A): > 150 µM (not active)

CCCc1n[nH]c2c1C1(C(=O)N(Cc3ccccc3)c3ccccc31)C(C(=O)OC)=C(N)O2 (stereo unspecified)
EC50 [2]: > 260 µM (inactive)

O=[N+]([O-])c1ccc(N2CCNCC2)cc1NCC1CCCO1 (stereo unspecified)
AC50 (Cytochrome P450 2C19): 39.8 µM (inconclusive)
EC50 [3]: > 195 µM (not active)

COc1ccccc1-c1[nH]nc2c1[C@H](C)CC[C@H]2C(C)C
EC50 [1]: 10.9 µM (active)
EC50 (Streptococcus): > 150 µM (not active)
EC50 (Streptokinase A): > 150 µM (not active)

O=C(CNC(=O)c1ccco1)Nc1ccc2c(c1)OCCO2
EC50 [3]: 0.274 µM (active)

CCc1nnc(NC(=O)C(NC(=O)c2ccccc2Cl)C(C)C)s1 (stereo unspecified)
EC50 [2]: > 260 µM (inactive)

CN(C)c1ccc(/C=C2/C(=N\O)C3CCN2CC3)cc1
EC50 (H4): 28.8 µM (inconclusive)
EC50 [4]: 6.23 µM (active)
EC50 [5]: 26 µM (active)
IC50 [6]: 75.5 µM (active)

C=CCn1/c(=N/C(=O)C2CC2)sc2cc(NC(C)=O)ccc21
EC50 [3]: > 195 µM (not active)
